Reference: PubChem BioAssay AID1648 (Sanford-Burnham Center for Chemical Genomics, 2009)
Calls of active or inactive are those of the source. The rule behind the calls is not given here.

What follows are compounds tested against Serine/threonine-protein kinase mTOR (Homo sapiens) (UniProt P42345) (assay: binders of mTOR FRB domain, biophysical, NMR (AID 1648)). Details: NMR binding to FRB domain, chemical shift.
Serine/threonine-protein kinase mTOR (Homo sapiens), sequence (P42345 2015-2114): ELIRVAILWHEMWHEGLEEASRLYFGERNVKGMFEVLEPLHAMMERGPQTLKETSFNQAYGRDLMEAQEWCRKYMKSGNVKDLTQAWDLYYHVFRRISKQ

| Structure (SMILES) | Kd |
| --- | --- |
| O=C(NCc1ccccc1)c1cnsn1 | > 4 mM (inactive) |
| O=c1cccc2n1CC1CC2CN2CCCC[C@@H]12 (stereo not given in full) | > 4 mM (inactive) |
| O=C1N=C(N2CCOCC2)S/C1=C\c1cccnc1 | > 4 mM (inactive) |
| COc1ccc(C(=O)O)cc1OC | > 4 mM (inactive) |
| c1ccc(-c2noc(-c3cccnc3)n2)nc1 | > 4 mM (inactive) |
| O=C(O)c1[nH]nc2c1COc1ccccc1-2 | > 4 mM (inactive) |
| Cc1ccccc1CSc1nnc(C)n1N | > 4 mM (inactive) |
| Cc1cc(N2CCCC2=O)c(N)cc1N | > 4 mM (inactive) |
| CNC(C)[C@H](O)c1ccccc1 (stereo not given in full) | > 4 mM (inactive) |
| c1ccc(-c2nnc3sc(-c4ccncc4)nn23)cc1 | > 4 mM (inactive) |
| CC(=O)N1CCN(c2ccc(N)cc2)CC1 | > 4 mM (inactive) |
| NNC(=O)c1ccccc1-n1cccc1 | > 4 mM (inactive) |
| CCc1nnsc1C(=O)Nc1nccs1 | > 4 mM (inactive) |
| CC(=O)c1ccc(NS(=O)(=O)c2cccc(C)c2)cc1 | > 4 mM (inactive) |
| Clc1ccc2c(N3CCNCC3)ccnc2c1 | > 4 mM (inactive) |
| Cc1ccccc1NC(=O)CC1SC(N)=NC1=O (stereo not given) | > 4 mM (inactive) |
| CCOC(=O)c1[nH]cnc1C(=O)OC(C)C | > 4 mM (inactive) |
| O=C1C=CC2=C3c4cc(O)c(O)cc4C[C@@]3(O)COC2=C1 | > 4 mM (inactive) |
| COc1ccc(Cl)cc1-c1nc(-c2ccncc2)no1 | > 4 mM (inactive) |
| CC(C)CCCC(C)C1CCC2C3CC(=O)[C@H]4C[C@@H](O)CC[C@]4(C)C3CC[C@]12C (stereo not given in full) | > 4 mM (inactive) |
| N#Cc1cnn(-c2ccc(Cl)cc2)c1N | > 4 mM (inactive) |
| Cc1onc(-c2c(Cl)cccc2Cl)c1C(N)=O | > 4 mM (inactive) |
| Cc1ccc(C(=O)CS(C)(=O)=O)cc1 | > 4 mM (inactive) |
| CCC(/C=C/[C@@H](C)[C@H]1CCC2C3CC=C4C[C@@H](O)CC[C@]4(C)C3CC[C@@]21C)C(C)C (stereo not given in full) | > 4 mM (inactive) |

| Structure (SMILES) | Kd |
| --- | --- |
| NC(=O)CSc1nnc(-c2cccnc2)o1 | > 4 mM (inactive) |
| Nc1cc(=O)[nH]c(SCC(=O)NCc2ccccc2)n1 | > 4 mM (inactive) |
| Fc1ccc(CN2CCCNCC2)cc1 | > 4 mM (inactive) |
| O=C(O)c1sccc1-n1cccc1 | > 4 mM (inactive) |
| Nc1ccn(C2O[C@H](CO)[C@@H](O)[C@H]2O)c(=O)n1 (stereo not given in full) | > 4 mM (inactive) |
| O=CN1CCN(C(=O)c2ccc(F)cc2)CC1 | > 4 mM (inactive) |
| CC(=O)Nc1cccs1 | > 4 mM (inactive) |
| CC1(C)CC2C1CCC1(C)OC1CCC2(C)O (stereo not given) | > 4 mM (inactive) |
| Nc1nnc(-c2ccncc2)s1 | > 4 mM (inactive) |
| Cc1cc(C)nc(/N=C(/N)Nc2cccc(F)c2)n1 | > 4 mM (inactive) |
| COc1cc(S(=O)(=O)N(C)C)ccc1F | > 4 mM (inactive) |
| CC(=O)c1cccc(N=C2NC(=O)CS2)c1 | > 4 mM (inactive) |
| COc1cc2c(cc1OC)-c1cc3ccc(OC)c(OC)c3c[n+]1CC2 | > 4 mM (inactive) |
| CN1CCC(O)N1C(=O)c1ccccc1O (stereo not given) | > 4 mM (inactive) |
| O=C(NN1C(=O)c2ccccc2C1=O)c1cccs1 | > 4 mM (inactive) |
| O=C(c1ccco1)N1CCn2c1nc1ccccc12 | > 4 mM (inactive) |
| Cc1ccc2nc(SCCC#N)nc(C)c2c1 | > 4 mM (inactive) |
| COc1ccc(S(=O)(=O)N2CCOCC2)cc1C(C)C | > 4 mM (inactive) |
| CN(C(=O)NC1CCS(=O)(=O)C1)C1CCCCC1 (stereo not given) | > 4 mM (inactive) |
| N=C1/C(=C\c2ccco2)C(=O)N=C2SC=NN12 | > 4 mM (inactive) |
| NCc1ccc(-c2csnn2)cc1 | > 4 mM (inactive) |
| O=C(O)Cn1c(C(F)(F)F)nc2ccccc21 | > 4 mM (inactive) |
| O=C(O)CCC1NCC2CC1CN1CCCCC21 (stereo not given) | > 4 mM (inactive) |
| Cc1cc(C)n2nc(C(=O)NCc3ccco3)nc2n1 | > 4 mM (inactive) |

| Structure (SMILES) | Kd |
| --- | --- |
| CC(C)CCCC1(C)C=Cc2c(O)c3c(c(CCC(C)C)c2O1)OC12C(CC4CC1C(C)(C)OC2(CCC(C)C(=O)O)C4O)C3=O (stereo not given) | > 4 mM (inactive) |
| OCc1ccc(-n2cccn2)cc1 | > 4 mM (inactive) |
| O=C(c1ccncc1)N1CCN(C(=O)c2ccncc2)CC1 | > 4 mM (inactive) |
| COc1ccccc1NC(=O)c1ccc(C)s1 | > 4 mM (inactive) |
| CCn1ncc(Cl)c1C(=O)Nc1ccncc1 | > 4 mM (inactive) |
| Cc1ccc(S(=O)(=O)/N=C2\NC(=O)CS2)cc1 | > 4 mM (inactive) |
| c1ccc(-c2nnc(CNCc3ccco3)o2)cc1 | > 4 mM (inactive) |
| CC(=O)Oc1cc2c(C(C)=O)coc2c2ccccc12 | > 4 mM (inactive) |
| Cc1n[nH]c(=S)n(/N=C/c2cccs2)c1=O | > 4 mM (inactive) |
| O=C1CNC(=O)N1Cc1ccc(Br)cc1 | > 4 mM (inactive) |
| CCCc1cc(=O)[nH]c2nnc(SCC(C)=O)n12 | > 4 mM (inactive) |
| Cc1cc(SCC(=O)c2ccccc2)nc(=O)[nH]1 | > 4 mM (inactive) |
| C=C[C@H]1CN2CC[C@H]1C[C@@H]2[C@H](O)c1ccnc2ccccc12 | > 4 mM (inactive) |
| CC(=O)c1nnc2cc(C)nn2c1C | > 4 mM (inactive) |
| Cc1oc(-c2ccccc2)cc1C(N)=O | > 4 mM (inactive) |
| CCOC(=O)Cc1nc2ccccc2[nH]1 | > 4 mM (inactive) |
| CCc1c(C(=O)Nc2ccncc2)csc1C | > 4 mM (inactive) |
| c1ccn(Cc2ccncc2)c1 | > 4 mM (inactive) |
| COc1cc(C)c(Cl)cc1S(=O)(=O)N(C)C | > 4 mM (inactive) |
| Cn1nnc2cc(C(=O)NCc3ccco3)ccc21 | > 4 mM (inactive) |
| CN1CCN(C2CCN(Cc3ccccc3)CC2)CC1 | > 4 mM (inactive) |
| CCOC(=O)c1cnc2sccn2c1=O | > 4 mM (inactive) |
| OC1CCN(C(=S)NC2CC2)CC1 | > 4 mM (inactive) |
| Cc1ccc(-n2ncc(C#N)c2/N=C/N(C)C)cc1 | > 4 mM (inactive) |

| Structure (SMILES) | Kd |
| --- | --- |
| NC(=O)c1ccc(-c2ccccn2)s1 | > 4 mM (inactive) |
| O=C(O)CNc1ncnc2nc[nH]c12 | > 4 mM (inactive) |
| NS(=O)(=O)c1ccc(N=C2NC(=O)CS2)cc1 | > 4 mM (inactive) |
| NS(=O)(=O)c1ccc(NC(=O)c2cccs2)cc1 | > 4 mM (inactive) |
| Nc1ccc2c(C(F)(F)F)cc(=O)oc2c1 | > 4 mM (inactive) |
| CC1=C(C(N)=O)C(c2ccccc2)NC(=O)N1 (stereo not given) | > 4 mM (inactive) |
| CCOC(=O)c1nc2ccccc2c(=O)n1N | > 4 mM (inactive) |
| OCC1CCCC1O (stereo not given) | > 4 mM (inactive) |
| CC(C)(C)NC(=O)N1CCC(C(=O)O)CC1 | > 4 mM (inactive) |
| O=S(=O)(c1ccc(F)c(Cl)c1)N1CCCC1 | > 4 mM (inactive) |
| CCOC(=O)CNc1ncnc2c1nnn2CC | > 4 mM (inactive) |
| NC1=NCc2ccccc21 | > 4 mM (inactive) |
| O=C(Nc1cccnc1)c1c(F)c(F)c(F)c(F)c1F | > 4 mM (inactive) |
| CC(=O)c1ccc(NC(=S)N2CCC(O)CC2)cc1 | > 4 mM (inactive) |
| O=c1c(-c2cc(O)c(O)c(O)c2)coc2cc(O)c(O)c(O)c12 | > 4 mM (inactive) |
| Cc1cccc(NC(=O)c2ccccc2C(=O)O)c1 | > 4 mM (inactive) |
| Cc1cn2c(-c3cccnc3)nnc2s1 | > 4 mM (inactive) |
| NC(=O)CSc1nc2ccccc2c(=O)[nH]1 | > 4 mM (inactive) |
| CC(=O)Nc1ccc(NC(=O)C2CC2)cc1 | > 4 mM (inactive) |
| Cn1c(CO)nc2ccccc21 | > 4 mM (inactive) |
| CCN(CC)S(=O)(=O)c1ccc(F)cc1 | > 4 mM (inactive) |
| Cc1ccc2nc(SCC(=O)O)nc(C)c2c1 | > 4 mM (inactive) |
| CCNC(CC(=O)Nc1ccc(O)cc1)C(=O)O (stereo not given) | > 4 mM (inactive) |
| Nc1nc2ccc(C(=O)O)cc2s1 | > 4 mM (inactive) |

| Structure (SMILES) | Kd |
| --- | --- |
| CC1(C)Cn2c(nnc2-c2ccccc2)S1 | > 4 mM (inactive) |
| Cc1occc1C(=O)NC1CCN(C)CC1 | > 4 mM (inactive) |
| Cc1nc(-c2ccccc2)sc1CO | > 4 mM (inactive) |
| CC(=O)O[C@H]1C[C@@H](OC(C)=O)C(C)(C)C2C[C@@H](OC(C)=O)[C@]3(C)C([C@H](OC(C)=O)C[C@@]4(C)[C@H](c5ccoc5)OC(=O)[C@H]5O[C@]543)[C@]21C (stereo not given in full) | > 4 mM (inactive) |
| Cc1ccc(S(=O)(=O)CC(=O)N2CCCC2)cc1 | > 4 mM (inactive) |
| O=C1CCC(=O)N1c1nc2ccccc2s1 | > 4 mM (inactive) |
| Cc1cccc(NC(=O)NC(N)=O)c1 | > 4 mM (inactive) |
| c1ccc2c(NC3=NCCS3)cccc2c1 | > 4 mM (inactive) |
| Nc1nnc(COc2cccc(C(F)(F)F)c2)s1 | > 4 mM (inactive) |
| O=C(O)CCN1CCOCC1 | > 4 mM (inactive) |
| CC(=O)OC(C)(C)[C@@H]1Cc2cc3ccc(=O)oc3cc2O1 | > 4 mM (inactive) |
| O=C(O)c1c[nH]c2ccccc12 | > 4 mM (inactive) |
| CC1(C)CC[C@]2(C)CC[C@]3(C)C(=CCC4[C@@]5(C)CC[C@H](O)C(C)(C)C5CC[C@]43C)C2C1 (stereo not given in full) | > 4 mM (inactive) |
| Cc1cc(-c2ccccc2)nc2cc(C(N)=O)nn12 | > 4 mM (inactive) |
| NCc1ccc2c(c1)OCCCO2 | > 4 mM (inactive) |
| Nc1c(S(=O)(=O)c2ccccc2)csc1C(=O)O | > 4 mM (inactive) |
| CC1(c2ccncc2)NC(=O)NC1=O (stereo not given) | > 4 mM (inactive) |
| COC(=O)C(O)[C@@H]1C2(C)C(=O)[C@@H](CC3=C4CC(=O)O[C@@H](c5ccoc5)[C@]4(C)CCC32)[C@H](OC(C)=O)C1(C)C (stereo not given in full) | > 4 mM (inactive) |
| OC/C=C/c1ccc(O)c(O)c1 | > 4 mM (inactive) |
| NC(=O)c1cccc(Cl)n1 | > 4 mM (inactive) |
| COc1ccc2[nH]cc(CCN(C)C)c2c1 | > 4 mM (inactive) |
| C[n+]1ccc(C(=O)[O-])cc1 | > 4 mM (inactive) |
| NCc1ccc(N2CCOCC2)cc1 | > 4 mM (inactive) |
| CCN1CC2(C)CC[C@H](OC)[C@]34C2[C@H](O)C2(OCO[C@@]25C[C@H](OC)[C@H]2C[C@]3(O)C5[C@H]2O)C14 | > 4 mM (inactive) |
